Data on 4 compounds can be found in ChEMBL document CHEMBL3817740, “Recent developments in SAR visualization” (Medchemcomm, 2016).

Histamine H4 receptor, sequence (Q9H3N8 whole entry): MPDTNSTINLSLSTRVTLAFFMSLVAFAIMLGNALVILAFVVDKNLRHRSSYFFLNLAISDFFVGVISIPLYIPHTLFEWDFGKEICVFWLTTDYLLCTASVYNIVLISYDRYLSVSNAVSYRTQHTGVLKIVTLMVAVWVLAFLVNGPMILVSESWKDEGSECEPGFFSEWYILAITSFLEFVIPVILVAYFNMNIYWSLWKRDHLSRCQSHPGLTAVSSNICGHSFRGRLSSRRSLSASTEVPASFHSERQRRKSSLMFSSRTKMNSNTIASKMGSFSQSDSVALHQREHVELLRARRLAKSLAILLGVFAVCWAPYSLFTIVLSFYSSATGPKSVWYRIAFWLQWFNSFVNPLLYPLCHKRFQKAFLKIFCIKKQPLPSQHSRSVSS

This assay concerns the target Histamine H4 receptor (Homo sapiens, UniProt Q9H3N8). Nature of the assay: Inhibition of histamine H4 receptor (unknown origin).
The Ki is a dissociation constant, usually derived from enzyme kinetics or from competition with a known ligand. Lower therefore signals higher affinity. On to `CN[C@H]1CCN(c2nc(N)nc3c2CCC3)C1`, for which the Ki is 0.158 µM.
The compound `CN[C@H]1CCN(c2nc(N)nc3c2oc2ccc(C(C)(F)F)cc23)C1` gave a Ki of 0.001 µM.
For `CN[C@H]1CCN(c2nc(N)nc3c2oc2ccccc23)C1` the value was 0.00339 µM.
As for `CN[C@H]1CCN(c2nc(N)nc(C)c2C)C1`, the inhibitory constant (Ki) was 0.355 µM. This Ki is about 100-fold higher than that of the compound before.
